The conditions of data set [1]: reported values; cited from earlier work.
The nature of data set [2]: Zeta potential of liposomes as a function of pH. The format is physicochemical. Particulars: FIG. 2. The text has this: As discussed in Example 5, zeta potential measurements were obtained for the liposomes containing DSPEI and for the liposomes containing HDSG. […] This is likely indicative of a higher pKa and greater charge at physiological pH. […] The greater neutrality of DSPEI-containing liposomes is important for minimization of non-specific interactions with plasma proteins and cells under in vivo conditions and thus prolonged circulation in the blood, which is necessary for systemic drug and gene delivery, as well as delivery of gene modulators, to diseased tissues.
With continuing reference to FIG. 2, zeta potential measurements were also determined for liposomes prepared using dimethyldioctadecylammonium bromide (DDAB) (diamonds). […] Therefore DDAB-containing liposomes retain their cationic charge at physiological pH and are more likely to participate in non-specific interactions with plasma proteins under in vivo conditions. DDAB-containing liposomes are consequently cleared rapidly from circulation and are less suitable for drug or gene delivery to diseased tissues.
Zeta potential was measured using a ZETASIZER 2000 from Malver Instruments, Inc. (Southborough Mass.). […]

As usually defined, the pKa is the pH at which an ionisable group is half protonated. Regarding `c1c[nH]cn1` [imidazole], the pKa result in data set [1] was “about 6.0”.

Consider `CCCCCCCCCCCCCCCCCC[N+](C)(C)CCCCCCCCCCCCCCCCCC.[Br-]` [DDAB, dimethyldioctadecylammonium bromide, reference compound], for which the “pKa relative to the other lipids, inferred from zeta potential versus pH slope” value in data set [2] is recorded as “higher than for either HDSG or DSPEI”.

With `NCCc1c[nH]cn1` [histamine], the pKa in data set [1] was 6.

As for `CCCCCCCCCCCCCCCCCC(=O)OCC(COP(=O)(O)OCCNCc1c[nH]cn1)OC(=O)CCCCCCCCCCCCCCCCC` (stereo not shown) [DSPEI, distearoylphosphatidylethanolamine imidazole], in data set [2], the “pKa relative to the other lipids, inferred from zeta potential versus pH slope” value is listed as “lower pKa than HDSG”.

These data come from patent US20050191344A1, “Liposome composition for delivery of therapeutic agents” (priority 2004, published 2005).
